Measurements published in the CheMixHub viscosity set.
Values joined by “and” are separate entries in the source; they are usually repeats but may differ in a detail not shown here. Identical values can stand only once.

Assay: xn = mol fraction of the nth substance listed

O=S(=O)([O-])[O-].[O]=[V+2] + O
viscosity, 100 kPa
Conditions	293.15 K	298.15 K	303.15 K	308.15 K	313.15 K	318.15 K	323.15 K
x1 = 0.000898	1.035 mPa·s	0.9204 mPa·s	0.8258 mPa·s	0.7466 mPa·s	0.6802 mPa·s	0.6242 mPa·s	0.576 mPa·s
x1 = 0.00129	1.048 mPa·s	0.9314 mPa·s	0.836 mPa·s	0.7558 mPa·s	0.688 mPa·s	0.6311 mPa·s	0.5827 mPa·s
x1 = 0.00163	1.068 mPa·s	0.9499 mPa·s	0.8519 mPa·s	0.7707 mPa·s	0.7015 mPa·s	0.6439 mPa·s	0.5926 mPa·s
x1 = 0.002247	1.089 mPa·s	0.9678 mPa·s	0.8664 mPa·s	0.7814 mPa·s	–	–	–
x1 = 0.002326	1.101 mPa·s	0.978 mPa·s	0.8762 mPa·s	0.7911 mPa·s	0.7207 mPa·s	0.6594 mPa·s	0.6101 mPa·s
x1 = 0.002883	1.132 mPa·s	1.005 mPa·s	0.8997 mPa·s	0.8136 mPa·s	0.7379 mPa·s	0.6736 mPa·s	0.6205 mPa·s
x1 = 0.003583	1.154 mPa·s	1.024 mPa·s	0.9168 mPa·s	0.8267 mPa·s	0.7514 mPa·s	0.6872 mPa·s	0.6348 mPa·s
x1 = 0.004098	1.174 mPa·s	1.042 mPa·s	0.9321 mPa·s	0.8405 mPa·s	0.7626 mPa·s	0.6972 mPa·s	0.6409 mPa·s
x1 = 0.004417	1.19 mPa·s	–	0.9437 mPa·s	0.8499 mPa·s	0.7718 mPa·s	0.7049 mPa·s	0.6484 mPa·s
x1 = 0.00448	1.189 mPa·s	–	0.943 mPa·s	0.8499 mPa·s	–	–	–
x1 = 0.005377	1.236 mPa·s	1.094 mPa·s	0.9762 mPa·s	0.8796 mPa·s	0.7968 mPa·s	0.7274 mPa·s	0.6684 mPa·s
x1 = 0.006709	1.297 mPa·s	1.148 mPa·s	1.024 mPa·s	–	–	–	–
x1 = 0.00893	1.418 mPa·s	1.252 mPa·s	1.115 mPa·s	–	–	–	–
x1 = 0.0111	1.548 mPa·s	1.364 mPa·s	1.212 mPa·s	–	–	–	–
x1 = 0.0133	1.696 mPa·s	1.491 mPa·s	1.322 mPa·s	–	–	–	–
x1 = 0.0155	1.854 mPa·s	1.627 mPa·s	1.44 mPa·s	–	–	–	–
x1 = 0.0177	2.031 mPa·s	1.777 mPa·s	1.57 mPa·s	–	–	–	–
x1 = 0.01986	2.226 mPa·s	1.943 mPa·s	1.711 mPa·s	–	–	–	–
x1 = 0.02202	2.436 mPa·s	2.115 mPa·s and 2.121 mPa·s	–	–	–	–	–
x1 = 0.02418	2.662 mPa·s	2.312 mPa·s	2.027 mPa·s	–	–	–	–
x1 = 0.02631	2.89 mPa·s	2.509 mPa·s	2.196 mPa·s	–	–	–	–
x1 = 0.03893	–	–	–	–	–	2.575 mPa·s	–

C1C[C@@H]2[C@H]3CC[C@H](C3)[C@@H]2C1 + CCCCCCCCCC
viscosity
Conditions	293.15 K	298.15 K	303.15 K	308.15 K	313.15 K	318.15 K	323.15 K
100 kPa, x1 = 0.1005	0.989 mPa·s and 0.992 mPa·s	0.921 mPa·s	0.855 mPa·s and 0.858 mPa·s	0.8 mPa·s and 0.803 mPa·s	0.75 mPa·s and 0.754 mPa·s	0.706 mPa·s and 0.709 mPa·s	0.666 mPa·s and 0.669 mPa·s
100 kPa, x1 = 0.2006	1.074 mPa·s and 1.083 mPa·s	0.993 mPa·s and 1.002 mPa·s	0.925 mPa·s and 0.931 mPa·s	0.863 mPa·s and 0.869 mPa·s	0.808 mPa·s and 0.813 mPa·s	0.759 mPa·s and 0.764 mPa·s	0.715 mPa·s and 0.72 mPa·s
100 kPa, x1 = 0.3006	1.196 mPa·s	1.105 mPa·s	1.023 mPa·s	0.949 mPa·s	0.885 mPa·s	0.828 mPa·s	0.778 mPa·s
100 kPa, x1 = 0.3043	1.18 mPa·s	1.09 mPa·s	1.013 mPa·s	0.943 mPa·s	0.88 mPa·s	0.825 mPa·s	0.777 mPa·s
100 kPa, x1 = 0.3995	1.297 mPa·s	1.195 mPa·s	1.105 mPa·s	1.027 mPa·s	0.958 mPa·s	0.897 mPa·s	0.841 mPa·s
100 kPa, x1 = 0.4006	1.306 mPa·s	1.203 mPa·s	1.113 mPa·s	1.033 mPa·s	0.964 mPa·s	0.902 mPa·s	0.848 mPa·s
100 kPa, x1 = 0.4977	1.442 mPa·s	1.327 mPa·s	1.226 mPa·s	1.137 mPa·s	1.057 mPa·s	0.988 mPa·s	0.925 mPa·s
100 kPa, x1 = 0.4997	1.45 mPa·s	1.333 mPa·s	1.232 mPa·s	1.142 mPa·s	1.063 mPa·s	0.99 mPa·s	0.927 mPa·s
100 kPa, x1 = 0.5986	1.619 mPa·s	1.486 mPa·s	1.37 mPa·s	1.267 mPa·s	1.176 mPa·s	1.096 mPa·s	1.023 mPa·s
100 kPa, x1 = 0.6007	1.629 mPa·s	1.495 mPa·s	1.378 mPa·s	1.275 mPa·s	1.184 mPa·s	1.103 mPa·s	1.031 mPa·s
100 kPa, x1 = 0.7	1.859 mPa·s	1.7 mPa·s	1.562 mPa·s	1.441 mPa·s	–	1.238 mPa·s	1.155 mPa·s
100 kPa, x1 = 0.7001	1.849 mPa·s	1.692 mPa·s	1.555 mPa·s	1.435 mPa·s	–	1.234 mPa·s	1.15 mPa·s
100 kPa, x1 = 0.7963	2.117 mPa·s	1.938 mPa·s	1.776 mPa·s	1.634 mPa·s	1.51 mPa·s	1.398 mPa·s	1.299 mPa·s
100 kPa, x1 = 0.8002	2.153 mPa·s	1.963 mPa·s	1.798 mPa·s	1.655 mPa·s	–	1.413 mPa·s	1.313 mPa·s
100 kPa, x1 = 0.8994	2.512 mPa·s	2.284 mPa·s	2.086 mPa·s	1.914 mPa·s	1.763 mPa·s	1.629 mPa·s	1.511 mPa·s
100 kPa, x1 = 0.8995	2.525 mPa·s	2.294 mPa·s	2.093 mPa·s	1.918 mPa·s	1.765 mPa·s	1.631 mPa·s	1.513 mPa·s
101 kPa, x2 = 0.4893	1.525 mPa·s	–	–	–	–	–	–
101 kPa, x2 = 0.6905	1.245 mPa·s	–	–	–	–	–	–
